The target of series [1] is DAT (Macaca fascicularis, UniProt Q9GJT6). Kind of series: MicroPET imaging in anesthetized cynomolgus monkeys. The series is classed as in vivo. As to conditions: anesthetized cynomolgus monkey.
The test system of series [2] is DAT. Description: HRRT PET imaging in an awake rhesus monkey. The settings on record: HRRT PET images. In kind it is in vivo.

Chain of DAT (Macaca fascicularis, UniProt Q9GJT6) (Q9GJT6 whole entry): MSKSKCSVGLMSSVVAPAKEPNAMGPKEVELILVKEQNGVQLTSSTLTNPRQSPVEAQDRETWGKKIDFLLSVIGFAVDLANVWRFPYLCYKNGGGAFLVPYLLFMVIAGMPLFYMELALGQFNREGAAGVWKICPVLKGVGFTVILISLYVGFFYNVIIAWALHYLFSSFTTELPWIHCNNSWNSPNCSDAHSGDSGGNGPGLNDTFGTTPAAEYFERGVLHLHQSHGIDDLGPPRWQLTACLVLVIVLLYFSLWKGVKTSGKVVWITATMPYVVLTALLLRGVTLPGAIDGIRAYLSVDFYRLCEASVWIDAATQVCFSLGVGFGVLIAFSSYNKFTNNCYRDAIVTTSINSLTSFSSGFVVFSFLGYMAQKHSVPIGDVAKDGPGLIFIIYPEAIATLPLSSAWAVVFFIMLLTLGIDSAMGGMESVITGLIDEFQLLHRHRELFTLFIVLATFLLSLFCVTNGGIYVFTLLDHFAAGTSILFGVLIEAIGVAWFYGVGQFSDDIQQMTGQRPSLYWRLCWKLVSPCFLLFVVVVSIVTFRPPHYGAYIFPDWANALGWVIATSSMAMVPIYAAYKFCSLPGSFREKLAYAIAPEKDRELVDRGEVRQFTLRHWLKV

In the case of `COC(=O)C1C(c2ccc(F)cc2)CC2CCC1N2C/C=C/C[18F]` (stereo not drawn) [[^18F]9, A-((E)-4-[^18F]fluorobut-2-en-1-yl)-2β-carbomethoxy-3β-(4′-fluorophenyl)nortropane], the “Displacement of radiotracer in chase study” value at DAT [1] (19 (RTI-113•HCl) 0.3 mg/kg at 90 min post-injection) is “complete displacement”. Also, on DAT [1] (microPET baseline), the “Time to peak uptake in the putamen” value is reported as no more than 20 min and the “Time to peak uptake in the substantia nigra” value is reported as no more than 10 min. Moreover, the “Defluorination (radioactivity in the skull)” value on DAT [1] (microPET images) is given as “low degree of defluorination”. For the same molecule, the “Defluorination (visualization of the skull)” value with DAT [2] is “some degree of defluorination”.

(Values after publication PMC3756492 (Journal of medicinal chemistry, 2010).)
